Where two headings read alike, the source gives them in different places. Starred links: 1 amine or outer side, 2 acyl side, 3 side chain; linkers in the order of their positions; H or OH if unused. Positions of bridges follow the written chain, without caps; N, C: chain ends. Non-standard residues stand in square brackets, D forms with d. Residues, ends and D or L forms follow the SMILES beside them. ξ: configuration not given here. Biphenyl(4,4'-CH2)2 = c1cc(-c2ccc(C[*:2])cc2)ccc1C[*:1]; ξαMeNle(6-ylidene) = CC(CCCC=[*:3])(N[*:1])C(=O)[*:2]; X1 = CC(CCCCCCC=[*:3])(N[*:1])C(=O)[*:2]; Octanediyl(1,8) = C(CCCC[*:2])CCC[*:1]; ξC = NC(CS)C(=O)O
What was measured:
Format in all cases: cell-based
[1] = tested on: MM.1S, B Lymphoblast (multiple myeloma); experiment: MTT viability assay, MM.1S
Method: MM.1S, B Lymphoblast (multiple myeloma), ATCC: CRL-2974
(§1) Cell lines A549, MCF-7 and RAMOS were cultured in incubator under CO2 (6%) at 37° C. in DMEM high glucose (Dulbecco's Modified Eagle Solution, Gibco-BRL 31966-21) medium with 10% fetal bovine serum inactivated (FBS) (Gibco-BRL 10106-169). Cell lines HL-60 and MM.1S were cultured in incubator at 37° C. in RPMI-1640 (Sigma R8758) medium with 10% of fetal bovine serum inactivated (FBS) and 2 mM glutamine (Sigma G7513). Cell lines BJ were cultured in incubator under CO2 (6%) at 37° C. in Eagle's Minimum Essential Medium (Sigma, M-2279) with 10% fetal bovine serum inactivated (FBS) (Gibco-BRL 10106-169).
(§2) During the amplification step and the assays adherent cells were rinsed with DPBS (Dulbecco's Phosphate Buffered Saline, Sigma D1283) three times and afterward treated for 5 minutes with trypsin ([…]) (Gibco-BRL, 15400054) in solution of DPBS at 37° C., and, once detached, transferred in the culturing medium. No-adherent cells were centrifuged and transferred in the culturing medium. Cells were counted in a Neubauer chamber after labelling with Tripan-Blue.
Cells were seeded at a density of 10000 cells/well in 100 μl of medium in 96 well plates. After 24 h, the compounds to be tested were added to calculate the dose/response curve at the starting concentration of 100 μM with serial dilutions (1:1). Controls are the untreated cells. Each experiment was performed in triplicate.
(§3) Cells were incubated with the compounds at the indicated concentrations during 24-72 h in incubator under CO2 atmosphere at 37° C. Then, cell viability was measured by means of MTT (3-(4,5-dimethylthiazol-2-yl)-2,5-diphenyltetrazolium bromide) assay. Stock solution of MTT (475989 Calbiochem) was 5 mg/ml in PBS. 1×.10 μl/well of MTT solution were added and the plate was incubated for 3-4 hr. The medium was discarded and 100 μl of extracting buffer (PBS 1×, 15% SDS, 50% […] N,N-Dimethylformamide, pH 4.7) were added to each well. Plates were incubated for 16 h at room temperature under orbital shaking. Absorbance at 570 nm was finally measured. As negative control (experiment noise) 3 wells were treated with 20 μl/well of a solution of SDS 10% in H2O.
(§4) Data analysis was performed calculating the percentage of cell viability normalized vs. the values of negative control, which was considered equal to 100%. The dose/response curve was fitted through the sigmoidal equation dose-response (variable slope) and the IC50 values were calculated as follow:
Y=Bottom+(Top−Bottom)/(1+10^{[(LogIC50−X)*HillSlope]},
All cell lines were cultured in incubator at 37° C. in RPMI-1640 (Sigma R8758) medium with 10% of fetal bovine serum inactivated (FBS) and 2 mM glutamine (Sigma G7513). During the amplification step cells were centrifuged and transferred into the culturing medium. Cells were counted in a Neubauer chamber after labelling with Tripan-Blue.
as §3, with “peptidomimetic compound (S09)” for “compounds”
Cell lines A549 and MBA-MD231 were cultured in incubator under CO2 (6%) at 37° C. in DMEM high glucose (Dulbecco's Modified Eagle Solution, Gibco-BRL 31966-21) medium with 10% fetal bovine serum inactivated (FBS) (Gibco-BRL 10106-169). […]

[2] = tested on: A549, epithelial (lung cancer); experiment: MTT viability assay, A549
Method: A549, epithelial (lung cancer), ATCC: CCL-185
as §1
as §2, with “Tripan-Blue. […]” for “Tripan-Blue.”
as §3
as §4, with “follow: […]” for “follow:”

[3] = tested on: MCF-7, epithelial (breast cancer)
Method: MCF-7, epithelial (breast cancer), ECACC: 86012803 […] During the amplification step and the assays adherent cells were rinsed with DPBS (Dulbecco's Phosphate Buffered Saline, Sigma D1283) three times and afterward treated for 5 minutes with trypsin ([…]) (Gibco-BRL, 15400054) in solution of DPBS at 37° C., and, once detached, transferred in the culturing medium. No-adherent cells were centrifuged and transferred in the culturing medium. Cells were counted in a Neubauer chamber after labelling with Tripan-Blue. […] Cells were seeded at a density of 10000 cells/well in 100 μl of medium in 96 well plates. […] Controls are the untreated cells. Each experiment was performed in triplicate. Cells were incubated with the compounds at the indicated concentrations during 24-72 h in incubator under CO2 atmosphere at 37° C. […] Stock solution of MTT (475989 Calbiochem) was 5 mg/ml in PBS. 1×.10 μl/well of MTT solution were added and the plate was incubated for 3-4 hr. […] Plates were incubated for 16 h at room temperature under orbital shaking. Absorbance at 570 nm was finally measured. […] The dose/response curve was fitted through the sigmoidal equation dose-response (variable slope) and the IC50 values were calculated as follow: Y=Bottom+(Top−Bottom)/(1+10^{[(LogIC50−X)*HillSlope]},

[4] = MM.1S, MTT, incubation 24-72 h, Table 3, read-out: IC50 values
[5] = A549, MTT, incubation 24-72 h, Table 3, read-out: IC50 values
[6] = MM.1S, same protocol as Example 2, Table 6, read-out: Compound (IC50)
[7] = A549, same protocol as Example 2, Table 6, read-out: Compound (IC50)

| Structure (SMILES) | IC50 [1] | IC50 ([1]; 24 h) | IC50 ([1]; 72 h) | IC50 [2] | other results |
| --- | --- | --- | --- | --- | --- |
| CCc1ccc(/C=C2/SC(=S)NC2=O)cc1 [10058-F4, reference compound] |  |  |  |  | IC50 [1, 4]: > 100 µM; IC50 [2, 5]: > 100 µM; IC50 ([3]; MCF7, MTT, incubation 24-72 h, Table 3, read-out: IC50 values): ~52 µM |
| CC[C@H](C)[C@H](NC(=O)[C@H](Cc1ccc(O)cc1)NC(=O)[C@H](C)NC(=O)C1CSCCCCCCCCSCC(NC(=O)[C@H](CCCCN)NC(=O)[C@@H]2CCCN2C(=O)[C@H](C)N)C(=O)N[C@@H](C(C)C)C(=O)N[C@@H]([C@@H](C)CC)C(=O)N[C@@H](CC(C)C)C(=O)N[C@@H](CCCCN)C(=O)N[C@@H](CCCCN)C(=O)N[C@@H](C)C(=O)N1)C(=O)N[C@@H](CC(C)C)C(=O)N[C@@H](CO)C(=O)O (stereo partly drawn) [IDP-P1708160] (H-APK[ξC]VILKKA[ξC]AYILS-OH; linker 4-11 via Octanediyl(1,8); N-terminus and C-terminus assumed) | 48 µM | 35 µM | 5 µM | 65 ± 17 µM |  |
| CC[C@H](C)[C@H](NC(=O)[C@H](Cc1ccc(O)cc1)NC(=O)[C@H](C)NC(=O)[C@@H]1CSCc2ccc(cc2)-c2ccc(cc2)CSC[C@H](NC(=O)[C@H](CCCCN)NC(=O)[C@@H]2CCCN2C(=O)[C@H](C)N)C(=O)N[C@@H](C(C)C)C(=O)N[C@@H]([C@@H](C)CC)C(=O)N[C@@H](CC(C)C)C(=O)N[C@@H](CCCCN)C(=O)N[C@@H](CCCCN)C(=O)N[C@@H](C)C(=O)N1)C(=O)N[C@@H](CC(C)C)C(=O)N[C@@H](CO)C(=O)O [IDP-P1708161] (H-APKCVILKKACAYILS-OH; linker 4-11 via Biphenyl(4,4'-CH2)2; N-terminus and C-terminus assumed) | 33 ± 15 µM | 10 µM | 15 µM | 42 ± 6 µM |  |
| CC[C@H](C)[C@H](NC(=O)[C@@H](NC(=O)[C@@H](NC(=O)[C@H](CCCCN)NC(=O)[C@@H]1CCCN1C(=O)[C@H](C)N)C(C)C)C(C)C)C(=O)NC1(C)CCCCCCC=CCCCC(C)(C(=O)N[C@@H](CC(C)C)C(=O)N[C@@H](CO)C(=O)O)NC(=O)[C@H](Cc2ccc(O)cc2)NC(=O)[C@H](C)NC(=O)[C@H]([C@@H](C)O)NC(=O)[C@H](C)NC(=O)[C@H](CCCCN)NC(=O)[C@H](CCCCN)NC1=O (stereo partly drawn) [IDP-S17, APKVVIXKKATAYXLS] (H-APKVVI[X1]KKATAY[ξαMeNle(6-ylidene)]LS-OH; staple 7-14; N-terminus and C-terminus assumed) | > 100 µM |  |  | > 100 µM | IC50 [3]: > 100 µM |
| CC[C@H](C)[C@@H]1NC(=O)[C@H](Cc2ccc(O)cc2)NC(=O)[C@H](C)NC(=O)[C@H]([C@@H](C)O)NC(=O)[C@H](C)NC(=O)[C@H](CCCCN)NC(=O)C(C)(NC(=O)[C@H](CC(C)C)NC(=O)[C@@H](NC(=O)[C@@H](NC(=O)[C@@H](NC(=O)[C@H](CCCCN)NC(=O)[C@@H]2CCCN2C(=O)[C@H](C)N)C(C)C)C(C)C)[C@@H](C)CC)CCCCCCC=CCCCC(C)(C(=O)N[C@@H](CO)C(=O)O)NC1=O (stereo partly drawn) [IDP-S18, APKVVILXKATAYIXS] (H-APKVVIL[X1]KATAYI[ξαMeNle(6-ylidene)]S-OH; staple 8-15; N-terminus and C-terminus assumed) | > 100 µM |  |  | > 100 µM | IC50 [3]: > 100 µM |
| CC[C@H](C)[C@H](NC(=O)[C@H](Cc1ccc(O)cc1)NC(=O)[C@H](C)NC(=O)[C@@H](NC(=O)[C@H](C)NC(=O)C1(C)CCCC=CCCCCCCC(C)(NC(=O)[C@H](C)N)C(=O)N[C@@H](CCCCN)C(=O)N[C@@H](C(C)C)C(=O)N[C@@H](C(C)C)C(=O)N[C@@H]([C@@H](C)CC)C(=O)N[C@@H](CC(C)C)C(=O)N[C@@H](CCCCN)C(=O)N1)[C@@H](C)O)C(=O)N[C@@H](CC(C)C)C(=O)N[C@@H](CO)C(=O)O (stereo partly drawn) [IDP-S19, AXKVVILKXATAYILS] (H-A[X1]KVVILK[ξαMeNle(6-ylidene)]ATAYILS-OH; staple 2-9) |  |  |  |  | IC50 [1, 6]: > 100 µM; IC50 [2, 7]: > 100 µM; IC50 ([3]; MCF7, same protocol as Example 2, Table 6, read-out: Compound (IC50)): > 100 µM |
| CC[C@H](C)[C@H](NC(=O)[C@H](Cc1ccc(O)cc1)NC(=O)[C@H](C)NC(=O)C1(C)CCCC=CCCCCCCC(C)(NC(=O)[C@H](CCCCN)NC(=O)[C@@H]2CCCN2C(=O)[C@H](C)N)C(=O)N[C@@H](C(C)C)C(=O)N[C@@H]([C@@H](C)CC)C(=O)N[C@@H](CC(C)C)C(=O)N[C@@H](CCCCN)C(=O)N[C@@H](CCCCN)C(=O)N[C@@H](C)C(=O)N1)C(=O)N[C@@H](CC(C)C)C(=O)N[C@@H](CO)C(=O)O (stereo partly drawn) [S09, APKXVILKKAXAYILS—OH] (H-APK[X1]VILKKA[ξαMeNle(6-ylidene)]AYILS-OH; staple 4-11; N-terminus assumed) |  |  |  |  | IC50 ([1]; MM1S, MTT, 24-72 h, Table 7, read-out: IC50 values in μM for S09): 7.5 µM; IC50 [1, 4]: ~6.2 µM; IC50 [1, 6]: ~6.2 µM; IC50 ([2]; A549, MTT, 24-72 h, Table 12, read-out: IC50 values): 6.3 ± 0.5 µM; IC50 [2, 5]: 9.4 ± 4.1 µM; IC50 [2, 7]: 9.4 ± 4.1 µM |
| CC[C@H](C)[C@H](NC(=O)[C@H](Cc1ccc(O)cc1)NC(=O)[C@H](C)NC(=O)C1(C)CCCC=CCCCCCCC(C)(NC(=O)[C@H](CCCCN)NC(=O)[C@@H]2CCCN2C(=O)[C@H](C)N)C(=O)N[C@@H](C(C)C)C(=O)N[C@@H]([C@@H](C)CC)C(=O)N[C@@H](Cc2ccccc2)C(=O)N[C@@H](CCCCN)C(=O)N[C@@H](CCCCN)C(=O)N[C@@H](C)C(=O)N1)C(=O)N[C@@H](CC(C)C)C(=O)N[C@@H](CO)C(=O)O (stereo partly drawn) [S14, APKXVIFKKAXAYILS—OH] (H-APK[X1]VIFKKA[ξαMeNle(6-ylidene)]AYILS-OH; staple 4-11; N-terminus assumed) | 6.6 ± 0.9 µM | 7 µM | 7 µM | 9.1 ± 0.8 µM |  |

— patent US20200261534A1, “NEW TREATMENTS OF MULTIPLE MYELOMA” (priority 2017, published 2020)
